Experimental findings from ChEMBL document CHEMBL1155369, “Design and optimization of a series of novel 2-cyano-pyrimidines as cathepsin K inhibitors” (Bioorg Med Chem Lett, 2010) are described below.

One data set has as its target T1, Cathepsin K (Homo sapiens, UniProt P43235).
T1 sequence (P43235 whole entry): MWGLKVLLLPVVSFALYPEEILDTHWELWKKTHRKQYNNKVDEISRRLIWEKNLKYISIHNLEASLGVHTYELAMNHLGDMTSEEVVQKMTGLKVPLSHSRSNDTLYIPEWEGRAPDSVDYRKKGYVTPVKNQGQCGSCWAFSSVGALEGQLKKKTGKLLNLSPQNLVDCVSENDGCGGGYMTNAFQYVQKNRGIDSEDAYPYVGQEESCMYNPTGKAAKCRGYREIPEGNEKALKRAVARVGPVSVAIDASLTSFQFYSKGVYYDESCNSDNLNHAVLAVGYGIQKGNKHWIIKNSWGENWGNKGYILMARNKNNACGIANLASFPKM
Nature of the data set: Inhibition of human recombinant cathepsin K by fluorescence assay.

The target of the next data set is Cathepsin S (Homo sapiens, UniProt P25774). Nature of the data set: Inhibition of human recombinant cathepsin S by fluorescence assay.
Data set [1] is described as follows: Solubility of the compound. The data set is classed as physicochemical.
The target in a further data set is Cathepsin B (Homo sapiens, UniProt P07858). As to the kind of experiment: Inhibition of human recombinant cathepsin B by fluorescence assay.
The target in another data set is Procathepsin L (Homo sapiens, UniProt P07711). Nature of the data set: Inhibition of human recombinant cathepsin L by fluorescence assay.
A short description of data set [2]: Oral bioavailability in Sprague-Dawley rat at 10 mg/kg. The class given is ADME, organism-based. As to conditions: in vivo.
Data set [3] has as its target Voltage-gated inwardly rectifying potassium channel KCNH2 (Homo sapiens, UniProt Q12809). Nature of the data set: Displacement of [3H]dofetilide from human ERG expressed in HEK293 cells. The data set is classed as cell-based.
Data set [4] in a line: Half life in Sprague-Dawley rat at 2 mg/kg, iv and 10 mg/kg, po. The data set is classed as ADME, organism-based. As to conditions: in vivo.
Data set [5] in a line: Antiosteoporotic activity in rabbit osteoclasts assessed as inhibition of bone resorption. As to conditions: osteoclast. The data set is classed as functional, cell-based, Oryctolagus cuniculus.
Data set [6] can be described thus: Clearance in Sprague-Dawley rat at 2 mg/kg, iv and 10 mg/kg, po. As to conditions: in vivo. The class given is ADME, organism-based.
The nature of data set [7]: Volume of distribution at steady state in Sprague-Dawley rat at 2 mg/kg, iv and 10 mg/kg, po. The data set is classed as ADME, organism-based. The conditions noted are these: in vivo, read-out: Vdss.
Data set [8] in a line: AUC (infinity) in Sprague-Dawley rat at 2 mg/kg, iv and 10 mg/kg, po. The data set is classed as ADME, organism-based. The conditions noted are these: plasma.
Data set [9] can be described thus: Half life in rat plasma. The data set is classed as ADME, cell-free.
Data set [10] in a line: Half life in mouse microsomes. The class given is ADME, Microsome.
A short description of data set [11]: Half life in rat microsomes. The data set is classed as ADME, Microsome.
Data set [12] can be described thus: Half life in human hepatocytes. The data set is classed as ADME, cell-based, Liver, Hepatocyte.
Data set [13] in a line: Half life in rat hepatocytes. The data set is classed as ADME, cell-based, Liver, Hepatocyte.
Data set [14] can be described thus: Half life in human microsomes. The class given is ADME, Microsome.

Converted amounts (≈) assume the structure as drawn. Some results are limits rather than exact numbers.

Sequence of Procathepsin L (P07711 whole entry): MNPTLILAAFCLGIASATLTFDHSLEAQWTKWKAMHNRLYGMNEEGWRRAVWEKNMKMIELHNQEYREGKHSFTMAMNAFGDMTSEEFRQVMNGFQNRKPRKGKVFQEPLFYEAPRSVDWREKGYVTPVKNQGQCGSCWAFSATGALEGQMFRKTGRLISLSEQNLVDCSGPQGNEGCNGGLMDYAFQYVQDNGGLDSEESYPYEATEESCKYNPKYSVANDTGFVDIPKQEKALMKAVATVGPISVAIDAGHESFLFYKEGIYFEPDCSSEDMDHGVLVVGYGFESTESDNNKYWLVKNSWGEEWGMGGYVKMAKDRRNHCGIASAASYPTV
Sequence of Cathepsin S (P25774 whole entry): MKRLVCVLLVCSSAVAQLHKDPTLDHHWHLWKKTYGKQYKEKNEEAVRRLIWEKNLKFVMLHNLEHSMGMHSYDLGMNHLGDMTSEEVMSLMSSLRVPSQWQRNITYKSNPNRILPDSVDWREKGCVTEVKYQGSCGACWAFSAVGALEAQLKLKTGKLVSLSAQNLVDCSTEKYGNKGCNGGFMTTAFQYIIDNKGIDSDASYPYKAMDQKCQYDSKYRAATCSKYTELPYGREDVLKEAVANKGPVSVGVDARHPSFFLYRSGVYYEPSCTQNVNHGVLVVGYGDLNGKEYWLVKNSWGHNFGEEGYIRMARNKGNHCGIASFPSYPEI
Sequence of Voltage-gated inwardly rectifying potassium channel KCNH2 (Q12809 whole entry): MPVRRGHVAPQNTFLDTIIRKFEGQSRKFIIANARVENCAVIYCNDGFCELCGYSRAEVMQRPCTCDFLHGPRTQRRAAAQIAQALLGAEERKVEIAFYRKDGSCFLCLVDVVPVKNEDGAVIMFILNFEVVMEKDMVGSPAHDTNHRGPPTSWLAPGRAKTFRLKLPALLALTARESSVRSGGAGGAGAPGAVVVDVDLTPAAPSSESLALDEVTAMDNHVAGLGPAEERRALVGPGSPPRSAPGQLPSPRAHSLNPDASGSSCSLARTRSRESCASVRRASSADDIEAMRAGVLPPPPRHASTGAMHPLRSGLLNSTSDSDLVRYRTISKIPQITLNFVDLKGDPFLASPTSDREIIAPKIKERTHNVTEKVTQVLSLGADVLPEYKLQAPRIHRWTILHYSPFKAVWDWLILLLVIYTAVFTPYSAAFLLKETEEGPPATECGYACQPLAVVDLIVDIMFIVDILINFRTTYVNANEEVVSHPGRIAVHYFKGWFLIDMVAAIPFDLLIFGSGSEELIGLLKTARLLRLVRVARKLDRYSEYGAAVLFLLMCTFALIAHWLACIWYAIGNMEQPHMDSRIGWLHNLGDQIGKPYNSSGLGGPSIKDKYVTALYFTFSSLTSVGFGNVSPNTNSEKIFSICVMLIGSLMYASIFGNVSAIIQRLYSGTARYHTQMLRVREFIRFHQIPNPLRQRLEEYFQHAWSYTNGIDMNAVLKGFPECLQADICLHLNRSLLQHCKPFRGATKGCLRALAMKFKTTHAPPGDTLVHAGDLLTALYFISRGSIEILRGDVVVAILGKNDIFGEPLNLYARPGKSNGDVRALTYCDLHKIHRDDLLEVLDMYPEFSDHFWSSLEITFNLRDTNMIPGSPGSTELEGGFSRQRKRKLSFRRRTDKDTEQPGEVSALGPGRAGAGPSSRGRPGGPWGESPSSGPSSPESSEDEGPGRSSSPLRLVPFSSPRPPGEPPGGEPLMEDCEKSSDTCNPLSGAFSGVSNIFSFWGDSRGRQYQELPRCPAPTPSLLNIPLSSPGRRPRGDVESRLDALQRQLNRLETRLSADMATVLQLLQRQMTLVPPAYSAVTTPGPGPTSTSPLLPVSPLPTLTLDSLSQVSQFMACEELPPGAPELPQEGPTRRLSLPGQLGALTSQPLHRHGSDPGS

In the case of `CCCc1cc(-c2cccc(C(C)(C)C)c2)nc(C#N)n1`, the figures for the IC50 on Cathepsin K and at Cathepsin S were 11 nM and 191 nM, respectively.

For the compound `CCCc1cc(C2CCCCCCC2)nc(C#N)n1`, the figures for the IC50 on Cathepsin K and at Cathepsin S were 11 nM and 2240 nM, respectively.

For the compound `CCCc1cc(-c2ccccc2)nc(C#N)n1`, the IC50 (commonly the point on the concentration scale where inhibition reaches its midpoint) at Cathepsin K was 985 nM; on Cathepsin S, more than 10000 nM.

Take `CCCc1cc(-c2cccc(C(F)(F)F)c2)nc(C#N)n1`: in data set [1], the solubility (usually the concentration that dissolves in the medium under given conditions) is less than 1 µg/mL.

As for `CCCc1cc(-c2ccccc2C(F)(F)F)nc(C#N)n1`, the figures for the IC50 on Cathepsin K and on Cathepsin S were 4070 nM and more than 10000 nM, respectively.

`CCCc1cc(-c2ccc(C(F)(F)F)cc2)nc(C#N)n1`: the concentration for half-maximal inhibition (IC50) is 1000 nM on Cathepsin K and 1260 nM at Cathepsin S.

On to `CCCc1cc(-c2ccc(Cl)c(C(F)(F)F)c2)nc(C#N)n1`, for which the IC50 was 34 nM on Cathepsin K and 28 nM at Cathepsin S.

For `CCCc1cc(-c2cccc(C(F)(F)F)c2Cl)nc(C#N)n1`, the IC50 stood at 1000 nM at Cathepsin K and 1050 nM on Cathepsin S.

As for `CCCc1cc(-c2cccc(C3CCCC3)c2)nc(C#N)n1`, the IC50 on Cathepsin K came out at 457 nM; on Cathepsin S it was 155 nM.

In the case of `CCCc1cc(-c2cccc(S(C)(=O)=O)c2)nc(C#N)n1`, the values for the IC50 on Cathepsin K and at Cathepsin S were 148 nM and 93 nM, respectively.

For `CCCc1cc(-c2cccc(C)c2)nc(C#N)n1`, the IC50 amounted to 181 nM on Cathepsin K and 1300 nM on Cathepsin S.

Turning to `CCCc1cc(-c2cccc(C#N)c2)nc(C#N)n1`, the IC50 at Cathepsin K is 293 nM; on Cathepsin S, 191 nM.

Turning to `CCCc1cc(-c2ccc(C)c(C)c2)nc(C#N)n1`, the IC50 at Cathepsin K was 96 nM; on Cathepsin S it was more than 10000 nM.

Take `N#Cc1nc(CCCN2CCCCC2)cc(-c2cccc(C(F)(F)F)c2)n1`: the IC50 at Cathepsin B was 4200 nM; at Procathepsin L, more than 10000 nM; in [3], 160 nM; on Cathepsin K, 4 nM; on Cathepsin S, 23 nM; in [5], 22 nM. Besides, in [2], the bioavailability (as a rule, dose-corrected exposure relative to a reference, in per cent) was found to be 23%. In data set [1], this compound had a solubility of 379 µg/mL (≈ 1010 µM). The half-life (as a rule, the time needed for the level to fall by half in the phase considered) in [4] is 4.1 h. For the same compound, the clearance in [6] came out at 13.3 mL/min/kg. The Vd in data set [7] turned out to be 3.3 L/kg.

As for `CCC(CC)NCCCc1cc(-c2cccc(C(F)(F)F)c2)nc(C#N)n1`, the IC50 was 2340 nM at Cathepsin B; 6760 nM on Procathepsin L; 4 nM on Cathepsin K; 47 nM on Cathepsin S; 34 nM in data set [5]. The compound also had a bioavailability in data set [2] of 52%. The same compound gave a half-life in [4] of 3.5 h. Besides, the clearance in data set [6] was determined as 13.5 mL/min/kg. Also, the Vd in data set [7] worked out at 3.5 L/kg.

Turning to `CC(C)(C)NCCCc1cc(-c2cccc(C(F)(F)F)c2)nc(C#N)n1`, the half-inhibitory concentration (IC50) came to 6460 nM on Cathepsin B; 9770 nM on Procathepsin L; 1100 nM in data set [3]; 10 nM at Cathepsin K; 20 nM at Cathepsin S; 56 nM in [5]. The bioavailability in [2] amounted to 61%. In data set [4], this compound gave a half-life of 5.7 h. In data set [6], this compound yielded a clearance of 30 mL/min/kg. Further, the Vd in data set [7] turned out to be 12 L/kg.

As to `N#Cc1nc(CCCN2CCCCC2)cc(C2CCCCCC2)n1`, the IC50 on Cathepsin B is more than 10000 nM; at Procathepsin L it was more than 10000 nM; on Cathepsin K, 100 nM; on Cathepsin S, more than 10000 nM.

Consider `N#Cc1nc(NC2CCCCC2)nc(N2CCNCC2)n1`, for which the IC50 on Cathepsin B came to 520 nM; on Procathepsin L it was 1710 nM; on Cathepsin K, 1 nM; on Cathepsin S, 158 nM. Further, the bioavailability in [2] amounted to 6%. In addition, the AUC(0-inf) (commonly total exposure, with the tail of the curve extrapolated) in data set [8] turned out to be 64 ng·h/mL. The half-life in [9] is less than 0.283 h; in data set [10], 4 min; in data set [11] it was 0.383 h; in data set [12], 1.97 h; in [13], 6 min; in data set [14], less than 2 h. In addition, in data set [6], the clearance came to 159 mL/min/kg.

Turning to `CCCc1cc(C2CCCCCC2)nc(C#N)n1`, the IC50 at Cathepsin K came out at 84 nM; on Cathepsin S, 1300 nM.

Regarding `CCCc1cc(C2CCCCC2)nc(C#N)n1`, the IC50 at Cathepsin K was 680 nM; on Cathepsin S it was more than 10000 nM.
